Publication PMC7782168, “Synthesis, telomerase inhibitory and anticancer activity of new 2-phenyl-4H-chromone derivatives containing 1,3,4-oxadiazole moiety” (Journal of Enzyme Inhibition and Medicinal Chemistry, 2020)

Columns and labels:
[1] = tested on: SMMC-7721 (human hepatoma cell); experiment: In vitro anticancer (antiproliferative) MTT assay, SMMC-7721; type: cell-based
Description: (§1) A375, MDA-MB-231, MGC-803, SMMC-7721, SGC-7901 and L-02 cell lines were cultured in DMEM medium supplemented with 10% (V/V) heat-inactivated fetal bovine serum (FBS) (Biological Industries, Israel) along with 100 U/mL penicillin and […] streptomycin (Beyotime, China). Cells were grown in a humidified 5% CO2 atmosphere at 37 °C and maintained in a logarithmic growth phase for all experiments.
(§2) 2.5. Anticancer assay[23]

[2] = tested on: MDA-MB-231 (human breast cancer cell); experiment: In vitro anticancer (antiproliferative) MTT assay, MDA-MB-231; type: cell-based
Description: as §1, §2

[3] = tested on: SGC-7901 (human gastric cancer cell); experiment: In vitro anticancer (antiproliferative) MTT assay, SGC-7901; type: cell-based
Description: as §1, §2

[4] = tested on: A375 (human melanoma cell); experiment: In vitro anticancer (antiproliferative) MTT assay, A375; type: cell-based
Description: as §1, §2

telomerase = target: T1, telomerase (Homo sapiens, UniProt O14746); experiment: Telomerase activity assay using MGC-803 cells extract; type: biochemical; conditions: mean ± SD
T1 construct: assayed for telomerase activity using MGC-803 cells extract; endogenous in cells; host or cells: MGC-803 cell extract
T1 sequence (O14746 whole entry): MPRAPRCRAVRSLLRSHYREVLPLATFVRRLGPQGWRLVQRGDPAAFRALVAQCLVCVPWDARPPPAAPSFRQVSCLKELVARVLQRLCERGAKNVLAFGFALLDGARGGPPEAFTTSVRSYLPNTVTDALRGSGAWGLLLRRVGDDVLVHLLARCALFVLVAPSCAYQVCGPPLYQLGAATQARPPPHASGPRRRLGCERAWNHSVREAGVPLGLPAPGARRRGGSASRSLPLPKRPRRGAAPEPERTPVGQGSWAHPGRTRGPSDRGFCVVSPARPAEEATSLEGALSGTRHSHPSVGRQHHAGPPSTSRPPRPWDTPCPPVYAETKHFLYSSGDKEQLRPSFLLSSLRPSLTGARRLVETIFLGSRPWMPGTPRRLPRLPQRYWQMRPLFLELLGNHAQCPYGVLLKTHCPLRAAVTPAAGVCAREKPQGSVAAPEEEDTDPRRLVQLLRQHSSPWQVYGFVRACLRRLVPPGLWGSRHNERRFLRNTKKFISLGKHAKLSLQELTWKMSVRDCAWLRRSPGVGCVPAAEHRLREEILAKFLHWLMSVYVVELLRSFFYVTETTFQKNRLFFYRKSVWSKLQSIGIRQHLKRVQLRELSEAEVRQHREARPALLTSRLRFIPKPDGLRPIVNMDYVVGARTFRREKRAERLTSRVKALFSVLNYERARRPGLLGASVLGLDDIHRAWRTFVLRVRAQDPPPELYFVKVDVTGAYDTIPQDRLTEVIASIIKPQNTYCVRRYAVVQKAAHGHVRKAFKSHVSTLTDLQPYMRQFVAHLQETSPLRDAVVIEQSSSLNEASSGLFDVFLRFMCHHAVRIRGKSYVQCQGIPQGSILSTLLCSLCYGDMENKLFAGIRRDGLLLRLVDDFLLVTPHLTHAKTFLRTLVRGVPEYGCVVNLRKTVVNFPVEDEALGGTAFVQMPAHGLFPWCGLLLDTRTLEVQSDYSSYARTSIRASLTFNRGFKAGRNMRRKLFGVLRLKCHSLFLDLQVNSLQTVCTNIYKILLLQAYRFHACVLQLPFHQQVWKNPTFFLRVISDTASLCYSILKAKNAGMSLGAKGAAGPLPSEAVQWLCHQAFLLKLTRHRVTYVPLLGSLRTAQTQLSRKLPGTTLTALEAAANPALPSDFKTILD
T1 sequence (O60832 2-514 partner limits assumed): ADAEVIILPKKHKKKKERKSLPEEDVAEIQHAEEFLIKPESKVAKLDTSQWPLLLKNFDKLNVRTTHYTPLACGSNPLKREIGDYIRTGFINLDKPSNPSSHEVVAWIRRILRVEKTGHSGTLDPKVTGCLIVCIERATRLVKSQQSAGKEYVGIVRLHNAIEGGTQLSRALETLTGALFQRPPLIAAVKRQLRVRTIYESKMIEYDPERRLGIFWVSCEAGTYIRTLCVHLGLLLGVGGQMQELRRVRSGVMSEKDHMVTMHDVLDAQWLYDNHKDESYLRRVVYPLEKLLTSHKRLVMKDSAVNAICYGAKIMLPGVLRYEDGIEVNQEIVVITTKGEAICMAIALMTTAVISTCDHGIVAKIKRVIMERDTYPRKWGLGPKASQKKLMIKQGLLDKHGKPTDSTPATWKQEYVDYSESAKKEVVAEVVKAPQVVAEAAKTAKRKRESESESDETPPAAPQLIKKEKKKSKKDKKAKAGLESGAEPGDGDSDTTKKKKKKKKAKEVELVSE
T1 sequence (Q9NPE3 whole entry partner): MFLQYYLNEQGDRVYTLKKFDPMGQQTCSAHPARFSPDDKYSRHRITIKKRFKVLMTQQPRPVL
T1 sequence (Q9NX24 whole entry partner): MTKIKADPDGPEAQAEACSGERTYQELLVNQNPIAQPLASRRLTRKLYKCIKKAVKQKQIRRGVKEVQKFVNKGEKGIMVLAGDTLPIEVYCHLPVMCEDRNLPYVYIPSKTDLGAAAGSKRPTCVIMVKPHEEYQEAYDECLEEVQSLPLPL
T1 sequence (Q9NY12 whole entry partner): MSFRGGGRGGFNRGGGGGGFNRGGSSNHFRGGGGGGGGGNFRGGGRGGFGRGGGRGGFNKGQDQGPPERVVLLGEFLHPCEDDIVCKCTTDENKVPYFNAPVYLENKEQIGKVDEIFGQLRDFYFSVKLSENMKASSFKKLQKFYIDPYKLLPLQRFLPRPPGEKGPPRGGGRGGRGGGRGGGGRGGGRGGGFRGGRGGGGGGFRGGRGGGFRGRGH

[5] = tested on: human normal liver cell (L-02); experiment: Toxicity against human normal liver cells, MTT assay; type: cell-based; conditions: triplicate
Description: as §1, §2
In order to determine the selective cytotoxicity of selected compounds, we subsequently conducted a proliferative inhibition assay with human normal liver cell (L-02). […] Therefore, in combination with the above points, it is quite meaningful to further explore the mechanisms of this compound.

[6] = tested on: MGC-803 (human gastric cancer cell); experiment: In vitro anticancer (antiproliferative) MTT assay, MGC-803; type: cell-based
Description: as §1, §2

[7] = Homo sapiens, SMMC-7721, mean ± SD of three experiments in triplicate
[8] = Homo sapiens, MDA-MB-231, mean ± SD of three experiments in triplicate
[9] = Homo sapiens, SGC-7901, mean ± SD of three experiments in triplicate
[10] = Homo sapiens, A-375, mean ± SD of three experiments in triplicate
[11] = Homo sapiens, MGC-803, mean ± SD of three experiments in triplicate
[12] = mean ± SD of three experiments in triplicate

IC50 [1, 7] | IC50 [2, 8] | melting point | IC50 [3, 9] | IC50 [4, 10] | IC50 (telomerase) | IC50 [6, 11] | IC50 [1, 12] | IC50 [2, 12] | IC50 [3, 12] | IC50 [4, 12] | IC50 [6, 12] | SMILES | IC50 [5]
8.07 ± 1.3 µM | 25.1 ± 2.1 µM | 221 to 223 °C | 56.9 ± 1.24 µM | 11 ± 1.54 µM | 0.77 ± 0.13 µM | 17.3 ± 2.21 µM |  |  |  |  |  | COc1cc(OC)c2c(=O)c(OCC(=O)Nc3nnc(-c4ccc(F)cc4)o3)c(-c3cc(OC)c(OC)c(OC)c3)oc2c1 [A2, 2–(5,7-dimethoxy-4-oxo-2–(3,4,5-trimethoxyphenyl)-4H-chromen-3-yloxy)-N-(5–(4-fluorophenyl)-1,3,4-oxadiazol-2-yl)acetamide] | 1370 ± 430 µM
> 100 µM | > 100 µM | 227 to 229 °C | 25.4 ± 0.59 µM | 20.1 ± 0.62 µM | 0.81 ± 0.13 µM | 15.2 ± 0.41 µM |  |  |  |  |  | COc1cc(OC)c2c(=O)c(OCC(=O)Nc3nnc(-c4ccc(Cl)cc4)o3)c(-c3cc(OC)c(OC)c(OC)c3)oc2c1 [A5, N-(5–(4-chlorophenyl)-1,3,4-oxadiazol-2-yl)-2–(5,7-dimethoxy-4-oxo-2–(3,4,5-trimethoxyphenyl)-4H-chromen-3-yloxy)acetamide] | 1990 ± 130 µM
> 100 µM | > 100 µM | 231 to 233 °C | > 100 µM | 10.1 ± 0.52 µM | 0.62 ± 0.11 µM | > 100 µM |  |  |  |  |  | COc1cc(OC)c2c(=O)c(OCC(=O)Nc3nnc(-c4ccc(C(F)(F)F)cc4)o3)c(-c3cc(OC)c(OC)c(OC)c3)oc2c1 [A16, 2–(5,7-dimethoxy-4-oxo-2–(3,4,5-trimethoxyphenyl)-4H-chromen-3-yloxy)-N-(5–(4-(trifluoromethyl)phenyl)-1,3,4-oxadiazol-2-yl)acetamide] | 900 ± 110 µM
> 100 µM | 19.5 ± 1 µM | 221 to 223 °C | 10.2 ± 0.65 µM | 8.92 ± 0.69 µM | 0.92 ± 0.17 µM | 6.29 ± 0.36 µM |  |  |  |  |  | COc1cc(OC)c2c(=O)c(OCC(=O)Nc3nnc(-c4cccc(OC(F)(F)F)c4)o3)c(-c3cc(OC)c(OC)c(OC)c3)oc2c1 [A20, 2–(5,7-dimethoxy-4-oxo-2–(3,4,5-trimethoxyphenyl)-4H-chromen-3-yloxy)-N-(5–(3-(trifluoromethoxy)phenyl)-1,3,4-oxadiazol-2-yl)acetamide] | 620 ± 240 µM
> 100 µM | > 100 µM | 220 to 222 °C | > 100 µM | > 100 µM | 0.32 ± 0.07 µM | > 100 µM |  |  |  |  |  | COc1cc(OC)c2c(=O)c(OCC(=O)Nc3nnc(-c4ccc(OC)c(OC)c4)o3)c(-c3cc(OC)c(OC)c(OC)c3)oc2c1 [A27, 2–(5,7-dimethoxy-4-oxo-2–(3,4,5-trimethoxyphenyl)-4H-chromen-3-yloxy)-N-(5–(3,4-dimethoxyphenyl)-1,3,4-oxadiazol-2-yl)acetamide] | 1380 ± 210 µM
0.79 ± 0.13 µM | 0.51 ± 0.12 µM |  | 0.82 ± 0.43 µM | 0.58 ± 0.2 µM |  | 0.42 ± 0.08 µM |  |  |  |  |  | COc1cccc2c1C(=O)c1c(O)c3c(c(O)c1C2=O)C[C@@](O)(C(=O)CO)C[C@@H]3O[C@H]1C[C@H](N)[C@H](O)[C@H](C)O1 [ADM, Adriamycin, reference compound] | 
> 100 µM | > 100 µM | 151 to 153 °C | > 100 µM | > 100 µM | 0.51 ± 0.1 µM | > 100 µM |  |  |  |  |  | COc1cc(OC)c2c(=O)c(OCC(=O)Nc3nnc(-c4ccc(OC)c(OC)c4)o3)c(-c3ccc(OC)c(OC)c3)oc2c1 [B27, N-(5–(3,4-dimethoxyphenyl)-1,3,4-oxadiazol-2-yl)-2–(2-(3,4-dimethoxyphenyl)-5,7-dimethoxy-4-oxo-4H-chromen-3-yloxy)acetamide] | 1670 ± 250 µM
 |  | 230 to 232 °C |  |  | 1.19 ± 0.18 µM |  |  |  |  |  |  | COc1cc(OC)c2c(=O)c(OCC(=O)Nc3nnc(-c4cccc5ccccc45)o3)c(-c3ccc(OC)c(OC)c3)oc2c1 [B28, 2–(2-(3,4-dimethoxyphenyl)-5,7-dimethoxy-4-oxo-4H-chromen-3-yloxy)-N-(5-(naphthalen-1-yl)-1,3,4-oxadiazol-2-yl)acetamide] | 
 |  | 228 to 230 °C |  |  | 2.98 ± 0.27 µM |  |  |  |  |  |  | COc1cc(OC)c2c(=O)c(OCC(=O)Nc3nnc(-c4ccc5c(c4)OCCO5)o3)c(-c3ccc(OC)c(OC)c3)oc2c1 [B29, N-(5–(2,3-dihydrobenzo[b][1, 4]dioxin-6-yl)-1,3,4-oxadiazol-2-yl)-2–(2-(3,4-dimethoxyphenyl)-5,7-dimethoxy-4-oxo-4H-chromen-3-yloxy)acetamide] | 
 |  | 156 to 158 °C |  |  | > 60 µM |  |  |  |  |  |  | COc1cc(OC)c2c(=O)c(OCC(=O)Nc3nnc(-c4cccc(OCc5ccccc5)c4)o3)c(-c3ccc(OC)c(OC)c3)oc2c1 [B30, N-(5–(3-(benzyloxy)phenyl)-1,3,4-oxadiazol-2-yl)-2–(2-(3,4-dimethoxyphenyl)-5,7-dimethoxy-4-oxo-4H-chromen-3-yloxy)acetamide] | 
 |  | 233 to 235 °C |  |  | 2.82 ± 0.25 µM |  |  |  |  |  |  | COc1cc(OC)c2c(=O)c(OCC(=O)Nc3nnc(-c4ccco4)o3)c(-c3ccc(OC)c(OC)c3)oc2c1 [B31, 2–(2-(3,4-dimethoxyphenyl)-5,7-dimethoxy-4-oxo-4H-chromen-3-yloxy)-N-(5-(furan-2-yl)-1,3,4-oxadiazol-2-yl)acetamide] | 
 |  | 238 to 240 °C |  |  | 3.75 ± 0.39 µM |  |  |  |  |  |  | COc1cc(OC)c2c(=O)c(OCC(=O)Nc3nnc(-c4cccs4)o3)c(-c3ccc(OC)c(OC)c3)oc2c1 [B32, 2–(2-(3,4-dimethoxyphenyl)-5,7-dimethoxy-4-oxo-4H-chromen-3-yloxy)-N-(5-(thiophen-2-yl)-1,3,4-oxadiazol-2-yl)acetamide] | 
> 100 µM | > 100 µM | 226 to 228 °C | > 100 µM | > 100 µM | 0.97 ± 0.2 µM | > 100 µM |  |  |  |  |  | COc1cc(OC)c2c(=O)c(OCC(=O)Nc3nnc(/C=C/c4ccccc4)o3)c(-c3ccc(OC)c(OC)c3)oc2c1 [B33, (E)-2–(2-(3,4-dimethoxyphenyl)-5,7-dimethoxy-4-oxo-4H-chromen-3-yloxy)-N-(5-styryl-1,3,4-oxadiazol-2-yl)acetamide] | 1010 ± 140 µM
 |  |  |  |  |  |  | > 100 µM | > 100 µM | > 100 µM | 57.58 ± 0.21 µM | > 100 µM | C/C(=C\C(=O)Nc1ccccc1C(=O)O)c1ccc2ccccc2c1 [BIBR1532, reference compound] | 
